Source: US6416998B1, “Plasmid encoding a modified steroid hormone” (Baylor College of Medicine, priority 1992, dated 2002)

Columns and labels:
[1] = target: T1, UP-1 mutant receptor (hPR) (Homo sapiens, UniProt P06401); experiment: Yeast transcription assay (β-galactosidase activity); assay type: cell-based; conditions: for activation of mutant receptor: different concentrations (FIG. 5A); for transcriptional activity (in words): 1 μM, 4 hours
T1 construct: the wild type receptor is truncated by 54 authentic amino acids and 12 novel amino acids are added at the C-terminus; expressed in transfected cells; host or cells: Saccharomyces cerevisiae BJ3505 transformed with the UP-1 plasmid
T1 sequence (P06401 with tags, fused parts or gaps): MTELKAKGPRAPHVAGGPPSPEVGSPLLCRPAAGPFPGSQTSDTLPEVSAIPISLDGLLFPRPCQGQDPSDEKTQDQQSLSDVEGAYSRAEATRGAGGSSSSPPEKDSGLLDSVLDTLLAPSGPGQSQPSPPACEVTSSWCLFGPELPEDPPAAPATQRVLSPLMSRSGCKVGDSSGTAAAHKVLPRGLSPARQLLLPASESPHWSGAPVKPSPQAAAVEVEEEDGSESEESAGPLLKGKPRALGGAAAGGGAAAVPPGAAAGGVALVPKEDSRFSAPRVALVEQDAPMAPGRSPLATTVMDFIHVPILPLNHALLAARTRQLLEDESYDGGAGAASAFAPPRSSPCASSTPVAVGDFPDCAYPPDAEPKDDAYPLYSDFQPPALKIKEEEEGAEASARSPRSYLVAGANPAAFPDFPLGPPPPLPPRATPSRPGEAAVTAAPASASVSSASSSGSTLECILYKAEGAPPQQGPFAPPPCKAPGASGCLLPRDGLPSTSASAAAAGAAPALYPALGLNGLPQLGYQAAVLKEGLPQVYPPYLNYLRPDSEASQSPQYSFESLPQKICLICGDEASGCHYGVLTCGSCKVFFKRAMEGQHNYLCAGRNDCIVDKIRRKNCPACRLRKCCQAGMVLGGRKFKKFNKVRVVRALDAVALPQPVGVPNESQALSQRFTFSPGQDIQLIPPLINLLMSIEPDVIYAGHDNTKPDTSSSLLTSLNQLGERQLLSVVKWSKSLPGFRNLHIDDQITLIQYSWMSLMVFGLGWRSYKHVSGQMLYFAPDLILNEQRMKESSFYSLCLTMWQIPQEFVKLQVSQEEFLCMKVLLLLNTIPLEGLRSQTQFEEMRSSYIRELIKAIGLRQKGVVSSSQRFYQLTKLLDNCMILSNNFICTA
Description: (§1) Saccharomyces cerevisiae cells containing YEphPRB and the reporter plasmid were grown overnight at 30° C. in minimal media containing 2% glucose. The cells were subcultured in fresh medium and allowed to grow until early mid-log phase (O.D.600nm=1.0). Induction of receptor was initiated by the addition of 100 μM copper sulfate to the culture. Cells were harvested by centrifugation at 1,500 ×g for 10 minutes and resuspended in the appropriate buffer. This and all subsequent steps of analysis of the yeast extracts were done at 4° C.
(§2) When the cell density reached O.D.600nm=1.0, hormones were added to the cultures.
(§3) The plate assays used to identify the receptor mutants are qualitative in nature. To further characterize the properties of UP-1, the activity of the receptor mutants was compared with that of the wild type receptor in a transcription assay. […] The β-galactosidase activity in the cell cytosol was then measured.

[2] = target: T2, wild type receptor (hPR-B) (Homo sapiens, UniProt P06401); experiment: as above; assay type: cell-based, yeast (Saccharomyces cerevisiae); conditions: 1 μM; for transcriptional activity (in words): 4 hours
T2 construct: expressed in transfected cells; host or cells: Saccharomyces cerevisiae BJ3505 transformed with YEphPR-B
T2 sequence (P06401 1-933): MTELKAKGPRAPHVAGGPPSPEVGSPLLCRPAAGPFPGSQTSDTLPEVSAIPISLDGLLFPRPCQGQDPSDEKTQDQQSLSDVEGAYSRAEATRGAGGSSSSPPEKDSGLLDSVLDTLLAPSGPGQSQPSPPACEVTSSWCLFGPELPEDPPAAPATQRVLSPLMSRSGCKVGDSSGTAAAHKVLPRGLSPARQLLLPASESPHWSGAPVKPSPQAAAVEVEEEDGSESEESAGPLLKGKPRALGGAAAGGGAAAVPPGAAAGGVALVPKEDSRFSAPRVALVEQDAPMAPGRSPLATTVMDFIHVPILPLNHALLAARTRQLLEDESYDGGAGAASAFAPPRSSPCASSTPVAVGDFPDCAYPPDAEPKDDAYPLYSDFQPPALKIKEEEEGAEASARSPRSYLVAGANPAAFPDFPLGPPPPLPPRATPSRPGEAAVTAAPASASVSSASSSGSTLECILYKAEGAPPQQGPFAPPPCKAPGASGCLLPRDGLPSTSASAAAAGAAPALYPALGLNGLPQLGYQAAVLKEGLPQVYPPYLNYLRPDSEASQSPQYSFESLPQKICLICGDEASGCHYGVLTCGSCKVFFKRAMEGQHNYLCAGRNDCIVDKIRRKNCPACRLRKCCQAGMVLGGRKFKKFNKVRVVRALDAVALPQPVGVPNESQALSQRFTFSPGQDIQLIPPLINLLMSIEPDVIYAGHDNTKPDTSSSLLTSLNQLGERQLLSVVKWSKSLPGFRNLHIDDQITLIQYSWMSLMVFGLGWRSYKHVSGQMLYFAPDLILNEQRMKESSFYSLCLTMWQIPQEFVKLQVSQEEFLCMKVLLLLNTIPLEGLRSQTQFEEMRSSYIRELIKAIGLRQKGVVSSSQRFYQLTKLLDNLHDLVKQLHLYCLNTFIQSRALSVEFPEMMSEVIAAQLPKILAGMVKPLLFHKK
Description: as §1, §2, §3

[3] = target: T3, YEphPR-B879 truncated receptor (Homo sapiens, UniProt P06401); experiment: Yeast transcription assay; assay type: cell-based
T3 construct: YEphPR-B879, containing a stop codon corresponding to amino acid 880; expressed in transfected cells; host or cells: Saccharomyces cerevisiae (yeast)
T3 sequence (P06401 1-879): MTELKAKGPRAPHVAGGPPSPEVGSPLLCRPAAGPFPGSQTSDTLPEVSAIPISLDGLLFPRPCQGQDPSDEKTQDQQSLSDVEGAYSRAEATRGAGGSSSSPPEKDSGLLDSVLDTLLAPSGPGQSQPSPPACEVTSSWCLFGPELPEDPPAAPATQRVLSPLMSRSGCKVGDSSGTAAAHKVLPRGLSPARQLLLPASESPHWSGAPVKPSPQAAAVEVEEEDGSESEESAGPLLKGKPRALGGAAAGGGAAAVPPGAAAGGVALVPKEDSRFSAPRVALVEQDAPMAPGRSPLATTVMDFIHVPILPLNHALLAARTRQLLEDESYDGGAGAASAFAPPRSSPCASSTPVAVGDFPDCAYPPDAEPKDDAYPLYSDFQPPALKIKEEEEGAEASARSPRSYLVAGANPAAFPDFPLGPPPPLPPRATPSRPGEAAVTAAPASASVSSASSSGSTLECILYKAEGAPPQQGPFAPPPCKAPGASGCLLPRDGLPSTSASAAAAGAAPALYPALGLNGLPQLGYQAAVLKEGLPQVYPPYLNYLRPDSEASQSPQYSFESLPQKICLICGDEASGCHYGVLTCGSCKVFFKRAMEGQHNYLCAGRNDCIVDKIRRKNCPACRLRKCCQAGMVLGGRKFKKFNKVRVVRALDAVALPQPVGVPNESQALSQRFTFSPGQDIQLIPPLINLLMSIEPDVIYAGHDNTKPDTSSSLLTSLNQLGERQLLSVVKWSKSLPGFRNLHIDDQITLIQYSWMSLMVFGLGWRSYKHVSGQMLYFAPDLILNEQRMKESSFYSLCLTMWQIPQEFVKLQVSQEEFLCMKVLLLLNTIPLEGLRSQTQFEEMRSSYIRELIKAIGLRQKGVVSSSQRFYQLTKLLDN
Description: as §2
(§4) CJ236 cells were infected with mpPR90 (an M13 plasmid containing hPR cDNA).
(§5) Yeast cells were grown in the presence of 100 μM CuSO4. Transcriptional analysis was done as described above. Experiments were done in triplicate and transcriptional activities were normalized with respect to protein.

[4] = target: T4, YEphPRB891 truncated receptor (Homo sapiens, UniProt P06401); experiment: Yeast transcription assay; assay type: cell-based
T4 construct: YEphPRB891, containing a stop codon at amino acid 892; expressed in transfected cells; host or cells: Saccharomyces cerevisiae (yeast)
T4 sequence (P06401 1-891): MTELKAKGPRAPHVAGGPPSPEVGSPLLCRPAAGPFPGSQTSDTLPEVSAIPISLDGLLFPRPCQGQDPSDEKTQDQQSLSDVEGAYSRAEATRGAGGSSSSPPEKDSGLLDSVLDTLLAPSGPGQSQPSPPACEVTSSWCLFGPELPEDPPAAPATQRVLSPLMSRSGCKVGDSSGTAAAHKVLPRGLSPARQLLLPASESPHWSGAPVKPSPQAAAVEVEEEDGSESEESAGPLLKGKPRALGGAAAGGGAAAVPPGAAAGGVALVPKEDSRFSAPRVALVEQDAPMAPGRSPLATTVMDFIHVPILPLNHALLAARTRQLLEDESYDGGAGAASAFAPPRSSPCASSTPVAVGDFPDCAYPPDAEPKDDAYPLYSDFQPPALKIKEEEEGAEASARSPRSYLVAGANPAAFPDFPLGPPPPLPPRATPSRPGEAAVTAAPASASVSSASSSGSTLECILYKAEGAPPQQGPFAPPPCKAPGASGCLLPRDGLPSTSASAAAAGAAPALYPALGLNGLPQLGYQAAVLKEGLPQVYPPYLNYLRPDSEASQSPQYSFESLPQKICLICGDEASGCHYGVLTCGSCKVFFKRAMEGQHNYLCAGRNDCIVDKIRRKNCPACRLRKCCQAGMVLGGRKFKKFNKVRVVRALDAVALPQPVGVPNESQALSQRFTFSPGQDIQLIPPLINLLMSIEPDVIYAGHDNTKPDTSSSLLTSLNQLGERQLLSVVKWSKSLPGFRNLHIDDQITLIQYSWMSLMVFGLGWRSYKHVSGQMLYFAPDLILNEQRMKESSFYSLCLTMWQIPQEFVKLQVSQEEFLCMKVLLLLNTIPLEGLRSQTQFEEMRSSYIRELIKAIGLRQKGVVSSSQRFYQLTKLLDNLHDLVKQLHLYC
Description: as §2, §4, §5

[5] = target: T5, wild type receptor (phPR-B) (Homo sapiens, UniProt P06401); experiment: Transient transfection CAT assay in CV-1 cells; assay type: cell-based, monkey
T5 sequence (P06401 1-933): T2 sequence (P06401 1-933)
Description: (§6) Five μg of chloramphenicol acetyltransferase (CAT) reporter plasmid, containing two copies of a PRE/GRE from the tyrosine amino transferase gene linked to the thymidine kinase promoter ([…]), were used in transient cotransfection experiments together with 5 μg of wild type or mutant receptor DNAs.
(§7) CAT assays were performed as described above. In panel (B), CV-1 cells were transiently transfected as in (A).
Cell-type specific factors can influence the activity of the transactivating domains of steroid receptors. In order to evaluate this possibility, wild type and mutant receptors were transfected into CV-1 cells.

wild type PR (phPR-B) = target: T6, wild type PR (phPR-B) (Homo sapiens, UniProt P06401); experiment: Transient transfection CAT assay ([…]) in HeLa cells; assay type: cell-based; conditions: 10^−7M, 48 hours
T6 sequence (P06401 1-933): T2 sequence (P06401 1-933)
Description: as §6, §7

891 mutant (phPR-B891) = target: T7, 891 mutant (phPR-B891) (Homo sapiens, UniProt P06401); experiment: as above; assay type: cell-based; conditions: 10^−7M
T7 construct: YEphPRB891, containing a stop codon at amino acid 892; expressed in transfected cells; host or cells: HeLa cells (A16)
T7 sequence (P06401 1-891): T4 sequence (P06401 1-891)
Description: as §6, §7

| transcriptional activity (in words) [1] | transcriptional activity (in words) [2] | Compound | other results |
| --- | --- | --- | --- |
| – | – | CN(C)c1ccc(C2CC3(C)C(CCC34CCCO4)C3CCC4=CC(=O)CCC4=C23)cc1 (stereo not drawn) [Org31376, (11β,14β,17α)-4′,5′-dihydro-11-(4-dimethylaminophenyl)-[spiroestra-4,9-diene-17,2′(3′H)-furan]-3-one] | activation of mutant receptor [1]: activated |
| – | – | C[C@H]1CC2=CC(=O)CCC2=C2[C@@H]1[C@@H]1CC[C@@]3(CCCO3)[C@@]1(C)C[C@@H]2c1ccc(N(C)C)cc1 [Org31806, (7β,11β,17β)-11-(4-dimethylaminophenyl)-7-methyl-4′,5′-dihydrospiro[ester-4,9-diene-17,2′(3′H)-furan]-3-one] | activation of mutant receptor [1]: activated |
| had no effect | – | CCC(=O)[C@@]1(C)CC[C@H]2[C@@H]3CCC4=CC(=O)CCC4=C3CC[C@@]21C [R5020] | – |
| inactive | inactive | C[C@]12CCC(=O)C=C1CC[C@@H]1[C@@H]2[C@@H](O)C[C@@]2(C)[C@H]1CC[C@]2(O)C(=O)CO [cortisol] | – |
| inactive | inactive | C[C@@H]1C[C@H]2[C@@H]3CCC4=CC(=O)C=C[C@]4(C)[C@@]3(F)[C@@H](O)C[C@]2(C)[C@@]1(O)C(=O)CO [dexamethasone] | – |
| inactive | inactive | COc1ccc2c(c1)CCC(c1ccccc1)=C2c1ccc(OCCN2CCCC2)cc1 [nafoxidine] | – |
| – | – | CC(=O)[C@H]1CC[C@H]2[C@@H]3CCC4=CC(=O)CC[C@]4(C)[C@H]3CC[C@]12C [progesterone] | induction of transcription [2]: greater than 60 fold; activation of transcription [3]: inactive; activation of transcription [4]: inactive; receptor activation (CAT) [5]: activated; induction of transcription of CAT gene reporter (wild type PR (phPR-B)): 3- to 4 fold; induction of CAT activity (891 mutant (phPR-B891)): no activity |

| Compound | transcriptional activity (in words) [1] | transcriptional activity (in words) [2] | other results |
| --- | --- | --- | --- |
| C[C@]12CC[C@@H]3c4ccc(O)cc4CC[C@H]3[C@@H]1CC[C@@H]2O [estradiol] | inactive | inactive | – |
